“Also recorded” adds a separate entry of the source. No end group written: not given here. *: point of attachment. Biotin = O=C1N[C@H]2[C@H](CS[C@H]2CCCCC(=O)*)N1
B1: E148D: VEGF-DΔNΔC variant with mutation E148D (protein)
chain: DYKDDDDKFYDIETLKVIDEEWQRTQCSPRETCVEVASELGKSTNTFFKPPCVNVFRCGGCCNDESLICMNTSTSYISKQLFEISVPLTSVPELVPVKVANHTGCKCLPTAPRHPYS
B2: N147Q: VEGF-DΔNΔC variant with mutation N147Q (protein)
chain: DYKDDDDKFYDIETLKVIDEEWQRTQCSPRETCVEVASELGKSTNTFFKPPCVNVFRCGGCCQEESLICMNTSTSYISKQLFEISVPLTSVPELVPVKVANHTGCKCLPTAPRHPYS
B3: E149D: VEGF-DΔNΔC variant with mutation E149D (protein)
chain: DYKDDDDKFYDIETLKVIDEEWQRTQCSPRETCVEVASELGKSTNTFFKPPCVNVFRCGGCCNEDSLICMNTSTSYISKQLFEISVPLTSVPELVPVKVANHTGCKCLPTAPRHPYS
B4: S150G: VEGF-DΔNΔC variant with mutation S150G (protein)
chain: DYKDDDDKFYDIETLKVIDEEWQRTQCSPRETCVEVASELGKSTNTFFKPPCVNVFRCGGCCNEEGLICMNTSTSYISKQLFEISVPLTSVPELVPVKVANHTGCKCLPTAPRHPYS
B5: S150T: VEGF-DΔNΔC variant with mutation S150T (protein)
chain: DYKDDDDKFYDIETLKVIDEEWQRTQCSPRETCVEVASELGKSTNTFFKPPCVNVFRCGGCCNEETLICMNTSTSYISKQLFEISVPLTSVPELVPVKVANHTGCKCLPTAPRHPYS
B6: L151V: VEGF-DΔNΔC variant with mutation L151V (protein)
chain: DYKDDDDKFYDIETLKVIDEEWQRTQCSPRETCVEVASELGKSTNTFFKPPCVNVFRCGGCCNEESVICMNTSTSYISKQLFEISVPLTSVPELVPVKVANHTGCKCLPTAPRHPYS

The molecules below were run on VDnmAb (assay: Western blot of conditioned media containing VEGF-DΔNΔC variants probed with VDnmAb). Details: conditioned media of 293-F cells; in comparison to VEGF-DΔNΔC.
Type: binding
Description: Site-directed mutagenesis. DNA encoding VEGF-DΔNΔC, a form of mature human VEGF-D tagged at the N-terminus with the FLAG octapeptide (FIG. 11; SEQ ID NO: 145), was subjected to site-directed mutagenesis by PCR to generate VEGF-DΔNΔC variants. Mutations were introduced by amplification with the following primers: N147Q with 5'-[…] NO: 146) and 5'-[…] with 5'-[…] NO: 148) and 5'-[…] with 5'-[…] NO: 150) and 5'-[…] with 5'-[…] NO: 152) and 5'-[…] with 5'-[…] NO: 154) and 5'-[…] with 5'-[…] NO: 156) and 5'-[…] with 5'-[…] NO: 158) and 5'-[…] NO: 159) (FIG. 12). The desired mutations, as well as the absence of any unwanted mutations, in the resulting DNA fragments were confirmed by nucleotide sequencing. Expression of VEGF-DΔNΔC variants. Plasmids containing DNA encoding VEGF-DΔNΔC or its variants were used for transient transfection of 293-F cells with the FreeStyle MAX 293 Expression System according to manufacturer's instructions (Invitrogen). Cells expressing each variant were cultured in serum-free medium, and 30 ml of conditioned media was collected 7 days post-transfection and used for analysis. Western Blot Analysis. Conditioned media containing different variants of VEGF-DΔNΔC were resolved by SDS-PAGE, transferred to nitrocellulose membrane, probed with M2 anti-FLAG or VDnmAb antibodies labeled with IRDye 800CW according to manufacturer's instructions (LI-COR), and detected with an Odyssey Infrared Imaging System (LI-COR).

Molecule | VDnmAb binding to VEGF-DΔNΔC variant in Western blot
B1 | complete loss of VDnmAb binding
B2 | significant decrease in the amount of VDnmAb bound
B3 | dramatic decrease in the amount of VDnmAb bound
B4 | significantly affected VDnmAb binding; also recorded: significantly affected, but did not eliminate, binding
B5 | significant decrease in the amount of VDnmAb bound
B6 | dramatic decrease in the amount of VDnmAb bound; also recorded: significantly affected VDnmAb binding

Each molecule was assayed on VEGF-D neutralizing monoclonal antibody mAb 4A5 (VDnmAb) (assay: ELISA of biotinylated synthetic peptides on streptavidin plates for VDnmAb binding). Details: 2nd peptide library; 10 pmol peptide; VDnmAb 2 μg/ml; signal more than two-fold greater than background considered positive.
Description: Peptides. A series of synthetic 15-mer peptides (peptides 1 to 35, SEQ ID NOs: 4 to 38 in FIG. 4B, which overlap each other by 12 amino acids) were synthesized (Mimotopes Pty Ltd, Melbourne, Australia). The peptides encompassed the VHD of human VEGF-D (SEQ ID NO: 3, FIG. 4A). Peptide 36 (SEQ ID NO: 39) represented an artificial sequence including a FLAG tag as a positive control for a commercial anti-FLAG mAb (M2; Sigma) that was used as control for non-specific binding to peptides 1 to 35 (SEQ ID NOs: 4 to 38). Biotin was included at the N-terminal of each peptide during synthesis, except that peptide 1 (SEQ ID NO: 4, representing the N-terminal of the VHD) has biotin at the C-terminal. The four-amino acid linker “SGSG” was introduced between the N-terminal of each peptide sequence and biotin to provide more flexibility to peptides after immobilization on streptavidin plates, except peptide 1 (SEQ ID NO: 4) that included the C-terminal linker “GSG”.
ELISA. Reacti-Bind streptavidin high-binding-capacity coated plates (Pierce) were coated with 10 pmol of each peptide in PBS, blocked with 5% milk in PBS-0.1% Tween 20, and incubated with 100 μl of VEGF-D neutralizing monoclonal antibody mAb 4A5 (referred to herein as VDnmAb) or M2 at 2 μg/ml for 1 h at room temperature. Bound mAb was detected with goat anti-mouse IgG coupled with HRP. ABTS was used as the substrate, and the absorbance was read at 405 nm in a multiwell plate reader.
In this 2nd peptide library, biotin was included at the N-terminal of each peptide, and the four-amino acid linker “SGSG” was introduced between each peptide sequence and the biotin residue to provide more flexibility to peptides after immobilization on streptavidin plates. ELISA-based analysis of the 2nd peptide library was carried out as for the 1st peptide library.
Peptide 67 (SEQ ID NO: 141, the same as peptide 36, SEQ ID NO: 39 from the 1st library) and peptide 68 (SEQ ID NO: 142), both containing the FLAG tag, were used as controls. In this 3rd peptide library, biotin was included at the N-terminal of each peptide except peptides 6, 12 and 14 (SEQ ID NOs: 80, 86 and 88) which have C-terminal biotin residues. To provide more flexibility to peptides after immobilization on streptavidin plates, an amino acid linker was introduced between biotin residues and the peptide sequence: “SGSG” for N-terminal biotin; “SGS” for C-terminal biotin. ELISA-based analysis of the 3rd peptide library was carried out as for the 1st peptide library, described in Example 1.

Molecule | VDnmAb binding to peptide (ELISA signal, absorbance at 405 nm)
peptide 23 (SEQ ID NO: 62): 2nd library: single mutation of cysteine in the binding region, C145S (SGSGVNVFRCGGSCNEESL) | very minor or no effect on VDnmAb binding
peptide 24 (SEQ ID NO: 63): 2nd library: single mutation of cysteine in the binding region, C142S (SGSGVNVFRSGGCCNEESL) | very minor or no effect on VDnmAb binding
peptide 25 (SEQ ID NO: 64): 2nd library: mutation of two of the cysteine residues to serine (SGSGVNVFRCGGSSNEESL) | more effect
peptide 26 (SEQ ID NO: 65): 2nd library: mutation of two of the cysteine residues to serine (SGSGVNVFRSGGSCNEESL) | more effect
peptide 27 (SEQ ID NO: 66): 2nd library: mutation of two of the cysteine residues to serine (SGSGVNVFRSGGCSNEESL) | more effect
peptide 28 (SEQ ID NO: 67): 2nd library: mutation of all three cysteine residues to serine (SGSGVNVFRSGGSSNEESL) | significant loss of antibody binding

Same assay, conditions: 3rd peptide library; 10 pmol peptide; VDnmAb 2 μg/ml; signal more than two-fold over background considered positive

Molecule | VDnmAb binding to peptide (ELISA signal, absorbance at 405 nm)
peptide 22 (SEQ ID NO: 96): 3rd library: deletion of R141 (SGSGVFCGGCCNEESL) | little or no effect on VDnmAb binding
peptide 23 (SEQ ID NO: 97): 3rd library: mutation N147Q (SGSGVFRCGGCCQEESL) | loss, even complete loss, of VDnmAb binding
peptide 24 (SEQ ID NO: 98): 3rd library: mutation N147A (SGSGVFRCGGCCAEESL) | loss, even complete loss, of VDnmAb binding
peptide 25 (SEQ ID NO: 99): 3rd library: variant with deletion of one of N147, E148, E149, S150 (SGSGVFRCGGCCEESL) | loss of VDnmAb binding
peptide 26 (SEQ ID NO: 100): 3rd library: mutation E148D (SGSGVFRCGGCCNDESL) | loss, even complete loss, of VDnmAb binding
peptide 27 (SEQ ID NO: 101): 3rd library: mutation E148A (SGSGVFRCGGCCNAESL) | loss, even complete loss, of VDnmAb binding
peptide 28 (SEQ ID NO: 102): 3rd library: variant with deletion of one of N147, E148, E149, S150 (SGSGVFRCGGCCNESL) | loss of VDnmAb binding
peptide 29 (SEQ ID NO: 103): 3rd library: mutation E149D (SGSGVFRCGGCCNEDSL) | loss, even complete loss, of VDnmAb binding
peptide 30 (SEQ ID NO: 104): 3rd library: mutation E149A (SGSGVFRCGGCCNEASL) | loss, even complete loss, of VDnmAb binding
peptide 31 (SEQ ID NO: 105): 3rd library: double mutation E148D/E149D (SGSGVFRCGGCCNDDSL) | loss, even complete loss, of VDnmAb binding
peptide 32 (SEQ ID NO: 106): 3rd library: double mutation E148A/E149A (SGSGVFRCGGCCNAASL) | loss, even complete loss, of VDnmAb binding
peptide 33 (SEQ ID NO: 107): 3rd library: variant with deletion of one of N147, E148, E149, S150 (SGSGVFRCGGCCNSL) | loss of VDnmAb binding
peptide 58 (SEQ ID NO: 132): 3rd library: deletion of most of the cysteine and glycine residues at positions 142 to 146 (Biotin-SGSGNVFNEESL) | loss, but not complete loss, of binding
peptide 59 (SEQ ID NO: 133): 3rd library: simultaneous changes of most of residues 142 to 146 to alanine (SGSGNVFAAGAAANEESL) | loss, but not complete loss, of binding

Source: patent US20110305703A1, “ISOLATED VEGF-C AND VEGF-D PEPTIDES AND USES THEREOF” (Vegenics Pty Limited, priority 2008, published 2011)
